These results are taken from patent US9174964B2, “AMPK-activating piperidinyloxy-substituted 2,3-dihydro-1H-indene-1-amine compounds and pharmaceutical compositions including the same” (Rigel Pharmaceuticals, Inc., priority 2007, dated 2015).

pEC50: −log10 of the molar value. Counter-ions that a name gives are not always drawn.

The target of one experiment is AMPK. Description: AMPK activation, enzyme-linked immunosorbent assay. Format: biochemical. The conditions noted are these: Table 2, AMPK activation, ELISA. On the technique in general: An ELISA detects its analyte on a solid surface through an enzyme-linked reagent.
For the compound `COC(=O)c1ccc(CN2CCC(NC(=O)c3ccc(OC4CCN(c5ccc(C(F)(F)F)cc5)CC4)nc3)CC2)cc1` [Compound 45, methyl 4-((4-(6-(1-(4-(trifluoromethyl)phenyl)piperidin-4-yloxy)nicotinamido)piperidin-1-yl)methyl)benzoate], the pEC50 is < 5.00. Same read-out and setting: under `N#Cc1ccc(N2CCC(Oc3ccc(C(=O)NC4CCN(Cc5ccncc5)CC4)nc3)CC2)cc1` [Compound 1, 5-(1-(4-cyanophenyl)piperidin-4-yloxy)-N-(1-(pyridin-4-ylmethyl)piperidin-4-yl)picolinamide] stands 6.30 to 7.00. Still for that read-out and setting: under `COC(=O)c1ccc(CN2CCC(NC(=O)c3ccc(OC4CCN(c5ccc(C(F)(F)F)cc5)CC4)cn3)CC2)cc1` [Compound 8, methyl 4-((4-(5-(1-(4-(trifluoromethyl)phenyl)piperidin-4-yloxy)picolinamido)piperidin-1-yl)methyl)benzoate] stands > 7.00; under `O=C(N[C@H]1CCNC1)c1ccc(OC2CCN(c3ccc(C(F)(F)F)cc3)CC2)cn1` [Compound 27, (S)-N-(pyrrolidin-3-yl)-5-(1-(4-(trifluoromethyl)phenyl)piperidin-4-yloxy)picolinamide], < 5.00. Still for that read-out and setting: the same measure for `N#Cc1ccc(CN2CC(NC(=O)c3ccc(OC4CCN(c5ccc(C(F)(F)F)cc5)CC4)cn3)C2)cc1` [Compound 41, N-(1-(4-cyanobenzyl)azetidin-3-yl)-5-(1-(4-(trifluoromethyl)phenyl)piperidin-4-yloxy)picolinamide]: 6.30 to 7.00. The compound `N#Cc1ccc(CN2CC[C@@H](NC(=O)c3ccc(OC4CCN(c5ccc(C(F)(F)F)cc5)CC4)cn3)C2)cc1` [Compound 33, (R)-N-(1-(4-cyanobenzyl)pyrrolidin-3-yl)-5-(1-(4-(trifluoromethyl)phenyl)piperidin-4-yloxy)picolinamide] had a pEC50 of 6.00 to 6.30. Still for that read-out and setting: under `N#Cc1ccc(CN2CCC(NC(=O)c3ccc(OC4CCN(c5ccc(C(F)(F)F)cc5)CC4)nc3)CC2)cc1` [Compound 35, N-(1-(4-cyanobenzyl)piperidin-4-yl)-6-(1-(4-(trifluoromethyl)phenyl)piperidin-4-yloxy)nicotinamide] stands 6.30 to 7.00.

The compound `N#Cc1ccc(N2CCC(Oc3ccc(C(=O)NC4CCN(Cc5cccnc5)CC4)nc3)CC2)cc1` [Compound 6, N-(1-(pyridin-3-ylmethyl)piperidin-4-yl)-5-(1-(4-cyanophenyl)piperidin-4-yloxy)picolinamide] showed a pEC50 of 6.30 to 7.00. Regarding `O=C(NC1CCN(Cc2ccncc2)CC1)c1ccc(OC2CCN(c3ccc(C(F)(F)F)cc3)CC2)cn1` [Compound 3, N-(1-(pyridin-4-ylmethyl)piperidin-4-yl)-5-(1-(4-(trifluoromethyl)phenyl)piperidin-4-yloxy)picolinamide], the pEC50 is > 7.00.

Still in this experiment, the particulars now being: Table 3, AMPK activation, ELISA.
Take `O=C(c1ccc(F)cc1)N1CCC(NS(=O)(=O)c2ccc(OC3CCN(c4ccc(C(F)(F)F)cc4)CC3)nc2)CC1` [Compound 60, N-(1-(4-fluorobenzoyl)piperidin-4-yl)-6-(1-(4-(trifluoromethyl)phenyl)piperidin-4-yloxy)pyridine-3-sulfonamide]: the pEC50 was < 4.30.

Staying with this experiment, now noted: Table 4, AMPK activation, ELISA.
As for `N#Cc1ccc(CN2CCC(Oc3ccc4oc(C(=O)NC5CCN(Cc6ccccc6)CC5)cc4c3)CC2)cc1` [Compound 114, N-(1-benzylpiperidin-4-yl)-5-(1-(4-cyanobenzyl)piperidin-4-yloxy)benzofuran-2-carboxamide], the pEC50 is 6.30 to 7.00. On the same count and under the same terms, the same measure for `O=C(NC1CCN(C(=O)c2ccncc2)CC1)c1cc2ccc(OC3CCN(c4ccc(C(F)(F)F)cc4)CC3)cc2o1` [Compound 112, N-(1-isonicotinoylpiperidin-4-yl)-6-(1-(4-(trifluoromethyl)phenyl)piperidin-4-yloxy)benzofuran-2-carboxamide]: > 7.00; for `N#Cc1ccc(CN2CCC(Oc3ccc4oc(C(=O)NC5CCN(Cc6ccncc6)CC5)cc4c3)CC2)cc1` [Compound 79, 5-(1-(4-cyanobenzyl)piperidin-4-yloxy)-N-(1-(pyridin-4-ylmethyl)piperidin-4-yl)benzofuran-2-carboxamide]: 6.30 to 7.00. Compound `CC(C)(C)OC(=O)N1CC[C@@H](NC(=O)c2cc3cc(OC4CCN(c5ccc(C(F)(F)F)cc5)CC4)ccc3o2)C1` [Compound 120, (R)-tert-butyl 3-(5-(1-(4-(trifluoromethyl)phenyl)piperidin-4-yloxy)benzofuran-2-carboxamido)pyrrolidine-1-carboxylate] gave a negative-log EC50 (pEC50) of 5.00 to 6.00. Still for that read-out and setting: under `O=C(N[C@H]1CCN(Cc2ccncc2)C1)c1cc2cc(OC3CCN(Cc4ccc(Cl)cc4)CC3)ccc2o1` [Compound 129, (S)-5-(1-(4-chlorobenzyl)piperidin-4-yloxy)-N-(1-(pyridin-4-ylmethyl)pyrrolidin-3-yl)benzofuran-2-carboxamide] stands 5.00 to 6.00; under `N#Cc1ccc(CN2CCC(NC(=O)c3cc4ccc(OC5CCN(c6ccc(OC(F)(F)F)cc6)CC5)cc4o3)CC2)cc1` [Compound 89, N-(1-(4-cyanobenzyl)piperidin-4-yl)-6-(1-(4-(trifluoromethoxy)phenyl)piperidin-4-yloxy)benzofuran-2-carboxamide], > 7.00; under `Cc1c(C(=O)NC2CCN(Cc3ccccc3C#N)CC2)oc2cc(OC3CCN(c4ccc(C(F)(F)F)cc4)CC3)ccc12` [Compound 67, N-(1-(2-cyanobenzyl)piperidin-4-yl)-3-methyl-6-(1-(4-(trifluoromethyl)phenyl)piperidin-4-yloxy)benzofuran-2-carboxamide], > 7.00.

For the compound `O=C(NC1CCN(Cc2ccc(C(F)(F)F)cc2)CC1)c1cc2ccc(OC3CCN(c4ccc(C(F)(F)F)cc4)CC3)cc2o1` [Compound 99, N-(1-(4-(trifluoromethyl)benzyl)piperidin-4-yl)-6-(1-(4-(trifluoromethyl)phenyl)piperidin-4-yloxy)benzofuran-2-carboxamide], the pEC50 was > 7.00. The same measure, in the same setting: the same measure for `O=C(NC1CCN(Cc2ccccc2)CC1)c1cc2cc(OC3CCN(c4ccc(OC(F)(F)F)cc4)CC3)ccc2o1` [Compound 80, N-(1-benzylpiperidin-4-yl)-5-(1-(4-(trifluoromethoxy)phenyl)piperidin-4-yloxy)benzofuran-2-carboxamide trifluoroacetate salt]: > 7.00. The same measure, in the same setting: under `O=C(N[C@H]1CCN(Cc2cccnc2)C1)c1cc2cc(OC3CCN(Cc4ccc(Cl)cc4)CC3)ccc2o1` [Compound 130, (S)-5-(1-(4-chlorobenzyl)piperidin-4-yloxy)-N-(1-(pyridin-3-ylmethyl)pyrrolidin-3-yl)benzofuran-2-carboxamide] stands 5.00 to 6.00; under `O=C(NC1CCN(Cc2cccnc2)CC1)c1cc2ccc(OC3CCN(c4ccc(OC(F)(F)F)cc4)CC3)cc2o1` [Compound 95, N-(1-(pyridin-3-ylmethyl)piperidin-4-yl)-6-(1-(4-(trifluoromethoxy)phenyl)piperidin-4-yloxy)benzofuran-2-carboxamide], > 7.00; under `CN(C(=O)c1cc2cc(OC3CCN(c4ccc(C(F)(F)F)cc4)CC3)ccc2o1)C1CCN(C(=O)c2ccncc2)CC1` [Compound 118, N-(1-isonicotinoylpiperidin-4-yl)-N-methyl-5-(1-(4-(trifluoromethyl)phenyl)piperidin-4-yloxy)benzofuran-2-carboxamide], 6.30 to 7.00. Still for that read-out and setting: the same measure for `Cc1c(C(=O)NC2CCN(Cc3cccc(C#N)c3)CC2)oc2cc(OC3CCN(c4ccc(C(F)(F)F)cc4)CC3)ccc12` [Compound 66, N-(1-(3-cyanobenzyl)piperidin-4-yl)-3-methyl-6-(1-(4-(trifluoromethyl)phenyl)piperidin-4-yloxy)benzofuran-2-carboxamide]: > 7.00; for `N#Cc1ccccc1CN1CCC(NC(=O)c2cc3ccc(OC4CCN(c5ccc(OC(F)(F)F)cc5)CC4)cc3o2)CC1` [Compound 97, N-(1-(2-cyanobenzyl)piperidin-4-yl)-6-(1-(4-(trifluoromethoxy)phenyl)piperidin-4-yloxy)benzofuran-2-carboxamide]: > 7.00. With `Cc1c(C(=O)NC2CCNCC2)oc2cc(OC3CCN(c4ccc(C(F)(F)F)cc4)CC3)ccc12` [Compound 62, 3-methyl-N-(piperidin-4-yl)-6-(1-(4-(trifluoromethyl)phenyl)piperidin-4-yloxy)benzofuran-2-carboxamide], the negative logarithm of the EC50 (pEC50) is 4.30 to 5.00. On the same count and under the same terms, the same measure for `O=C(NC1CCN(Cc2ccccn2)CC1)c1cc2ccc(OC3CCN(c4ccc(C(F)(F)F)cc4)CC3)cc2o1` [Compound 93, N-(1-(pyridin-2-ylmethyl)piperidin-4-yl)-6-(1-(4-(trifluoromethyl)phenyl)piperidin-4-yloxy)benzofuran-2-carboxamide]: 6.30 to 7.00; for `CC(C)(C)OC(=O)N1CCC(NC(=O)c2cc3cc(OC4CCN(c5ccc(C(F)(F)F)cc5)CC4)ccc3o2)CC1` [Compound 85, tert-butyl 4-(5-(1-(4-(trifluoromethyl)phenyl)piperidin-4-yloxy)benzofuran-2-carboxamido)piperidine-1-carboxylate]: 6.00 to 6.30. As for `O=C(N[C@H]1CCNC1)c1cc2cc(OC3CCN(Cc4ccc(Cl)cc4)CC3)ccc2o1` [Compound 128, (S)-5-(1-(4-chlorobenzyl)piperidin-4-yloxy)-N-(pyrrolidin-3-yl)benzofuran-2-carboxamide], the pEC50 was < 4.30.

The experiment is the same for the next values; noted with them: Table 5, AMPK activation, ELISA.
On to `CC(C)(C)OC(=O)N1CCC(NC(=O)c2cc3ccc(OC4CCN(c5ccc(C(F)(F)F)cc5)CC4)cc3s2)CC1` [Compound 140, tert-butyl 4-(6-(1-(4-(trifluoromethyl)phenyl)piperidin-4-yloxy)benzo[b]thiophene-2-carboxamido)piperidine-1-carboxylate], for which the pEC50 is 6.00 to 6.30. `N#Cc1ccccc1CN1CCC(NC(=O)c2cc3ccc(OC4CCN(c5ccc(C(F)(F)F)cc5)CC4)cc3s2)CC1` [Compound 146, N-(1-(2-cyanobenzyl)piperidin-4-yl)-6-(1-(4-(trifluoromethyl)phenyl)piperidin-4-yloxy)benzo[b]thiophene-2-carboxamide] gave a pEC50 of 6.30 to 7.00.

Still in this experiment, the particulars now being: Table 6, AMPK activation, ELISA.
For `N#Cc1ccc(CN2CCC(NC3CCc4cc(OC5CCN(c6ccc(C(F)(F)F)cc6)CC5)ccc43)CC2)cc1` (stereo not shown) [Compound 160, 4-((4-(5-(1-(4-(trifluoromethyl)phenyl)piperidin-4-yloxy)-2,3-dihydro-1H-inden-1-ylamino)piperidin-1-yl)methyl)benzonitrile], the negative-log EC50 (pEC50) is > 6.30.

By pEC50 is commonly meant the EC50 on a negative log10 scale, so that one unit is a factor of ten.
